Data published in US7060733B2, “Methods for treating pancreatitis with curcumin compounds and inhibitors of reactive oxygen species” (The Regents of the University of California, priority 2002, dated 2006).
“Also recorded” adds a separate entry of the source.

Key:
IκBα and IκBβ = test: Western blot of IκBα and IκBβ in cytosolic extracts from pancreatic tissue; type: in vivo, rat
Procedure: IκBα and IκBβ levels were measured in cytosolic protein extracts from pancreatic tissue, prepared according to Example 12, by Western blot analysis using polyclonal antibodies sc-371 and sc-945, respectively (Santa Cruz Biotechnology, Santa Cruz, Calif.) using methods known in the art. […] Specifically, IκBα and IκBβ levels were measured in cytosolic protein extracts from pancreatic tissue by Western blot analysis using polyclonal antibodies sc-371 and sc-945, respectively (Santa Cruz Biotechnology, Santa Cruz, Calif.). […] Specifically, proteins in the cytosolic extract were separated by SDS-PAGE at 120 V using precast Tris-glycine gels and Mini-Cell gel apparatus (Novex, San Diego, Calif.). Separated proteins were electrophoretically transferred to polyvinylidene difluoride membrane for 2 hours at 30 V, using a Novex blot module. Nonspecific binding was blocked by overnight incubation of the membrane in 5% (wt/vol) nonfat dry milk in Tris-buffered saline (TBS, pH 7.5). Blots were then incubated for 2 hours at room temperature with primary antibodies in antibody buffer containing 1% (wt/vol) nonfat dry milk in TTBS (0.05% vol/vol Tween 20 in TBS), washed three times with TTBS, and finally incubated for 1 hour with a peroxidase-labeled secondary antibody in the antibody buffer. Blots were developed for visualization using enhanced chemiluminescence detection kit (Pierce Chemical, Rockford, Ill.).

CCK receptor = biological target: T1, CCK receptor (Rattus norvegicus, UniProt P30551); test: In vivo pancreatic secretion assay
T1 construct: from tissue; host or cells: living rat, pancreas (acinar cells)
T1 sequence (P30551 1-444): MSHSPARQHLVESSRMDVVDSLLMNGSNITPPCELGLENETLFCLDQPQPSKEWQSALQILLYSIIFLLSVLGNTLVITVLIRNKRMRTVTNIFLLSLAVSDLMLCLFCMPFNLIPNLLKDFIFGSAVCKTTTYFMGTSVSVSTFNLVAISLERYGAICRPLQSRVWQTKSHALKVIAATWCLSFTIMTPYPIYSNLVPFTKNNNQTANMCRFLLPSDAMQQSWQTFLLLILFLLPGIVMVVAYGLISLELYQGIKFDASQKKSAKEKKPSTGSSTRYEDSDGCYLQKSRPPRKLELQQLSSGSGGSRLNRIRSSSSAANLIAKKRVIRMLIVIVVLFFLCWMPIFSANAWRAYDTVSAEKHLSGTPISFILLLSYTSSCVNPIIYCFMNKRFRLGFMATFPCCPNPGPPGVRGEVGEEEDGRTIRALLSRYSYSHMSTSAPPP
Procedure: To rule out the possibility that the effect of curcumin was through inhibition of the action of cerulein or CCK-8 on CCK receptor activation, the effect of pancreatic secretion was tested.
Pancreatic secretion in test rats was measured in vivo by methods known in the art. See Gukovskaya A S, et al. (2002). Briefly, biliopancreatic secretion was allowed to drain freely for 30 minutes before initiation of the experiment. Then secretion was collected in tubes in 10-minute fractions to determine the basal amylase output, after which 0.25 μg/kg cerulein was given as an i.v. bolus and collection continued for 40 minutes in a similar manner. Collection volumes were measured by weigh, and the amylase output was calculated by determining amylase concentration in the collected fractions. The mean amylase output obtained from two consecutive 10-minute fractions after the stabilization period was taken as the basal secretion and considered as 100%. The results were expressed as percentage increase over basal amylase output 40 minutes after cerulein or vehicle infusion.

isolated acinar cells = test: Amylase secretion in isolated acinar cells; type: cell-based, rat; conditions: 100 μM curcumin, versus absence
Procedure: The effect of curcumin on amylase secretion in isolated acinar cells was assayed. Specifically, acinar cells were isolated using a collagenase digestion technique known in the art. Animals were sacrificed with CO2. The pancreas was removed and trimmed from mesentary and fat. […]
Amylase secretion was measured. […] Amylase activity was measured in each supernatant sample as well as the cellular sample and values for amylase release were calculated as the percentage of amylase activity in the cells at the beginning of the experiment that was release into the media during the experiment.
The absorbance was read with a spectrophotometer at 405 nm at 37° C. and the amylase activity in the samples was calculated by subtracting initial from the final readings. […]

caspase-3 = test: Caspase-3-like (DEVDase) activity in pancreatic tissue lysates; type: in vivo, rat; conditions: for Caspase-3-like (DEVDase) activity versus pancreatitis without curcumin: p<0.05; for augmentation of the increase in DEVDase activity: rat pancreas
Procedure: […] activity was measured by methods known in the art. See Gukovskaya A S, et al. (2002). Briefly, samples of pancreatic tissue were rinsed with ice-cold PBS and homogenized in a lysis buffer comprising 150 mM NaCl, 50 mM Tris-HCL (pH 7.5), 0.5% Igepal CA-630 (Sigma, St. Louis, Mo.), and 0.5 mM EDTA. Lysates were centrifuged for 10 minutes at 16,000× g and the supernatants were collected. Caspase activity was determined at 37° C. in a buffer comprising 25 mM HEPES (pH 7.5), 10% sucrose, 0.1% CHAPS, 10 mM DTT and […] Ac-DEVD-AMC, a specific fluorogenic substrate for measurement of caspase-3-like activity (AnaSpec, San Jose, Calif.). Cleavage of the substrate releases AMC that emits a fluorescent signal with excitation at 380 nm and emission at 440 nm. Fluorescence was calibrated using a standard curve for AMC. The data were expressed as mol AMC/min/mg protein.

## COc1cc(/C=C/C(=O)CC(=O)/C=C/c2ccc(O)c(OC)c2)ccc1O [curcumin]
IκBα and IκBβ; cerulein pancreatitis, rat
  decrease (degradation) of IκBα and IκBβ: prevented
IκBα and IκBβ; control animals
  IκBα and IκBβ levels in control animals: did not change
IκBα and IκBβ; ethanol/CCK pancreatitis, rat
  IκB degradation: prevented; also recorded: inhibits
CCK receptor; rat, versus without curcumin
  effect on cerulein/CCK-induced pancreatic secretion in vivo: not statistically different; also recorded: did not appear to have an effect
CCK receptor; rats treated with curcumin, 0.25 μg/kg cerulein i.v. bolus, 40 min, n=4
  cerulein-induced amylase secretion, of the basal amylase output: 1000±37%
Isolated acinar cells
  amylase release elicited by maximal (1 nM) and supramaximal (100 nM) CCK-8: the same
caspase-3; EtOH+CCK pancreatitis
  Caspase-3-like (DEVDase) activity versus pancreatitis without curcumin: significantly higher
  augmentation of the increase in DEVDase activity: greater than 2 fold
caspase-3; cerulein pancreatitis
  Caspase-3-like (DEVDase) activity versus pancreatitis without curcumin: significantly higher
  augmentation of the increase in DEVDase activity: greater than 2 fold
